Data reported in US20240041042A1, “1-(PYRIDYL)-5-AZINYLPYRAZOLE DERIVATIVES, AND THEIR USE FOR CONTROL OF UNDESIRED PLANT GROWTH” (Bayer Aktiengesellschaft, priority 2020, published 2024).
Like-named read-outs stand apart in the source and are kept apart here.

Assays:
Type in all cases: in vivo
[1] = system: Abutilon theophrasti (ABUTH); assay: Pre-emergence herbicidal action against ABUTH; conditions: Dosage column 320 g/ha (title prints 3200 g/ha); scored visually after about 3 weeks; 100% = plants have died
How it was run: (§1)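 Seeds sown in pots and covered with soil; WP or EC formulations sprayed onto the soil surface at 600 l/ha water with 0.5% additive, at 320 g/ha or lower. Greenhouse growth for about 3 weeks, then visual scoring as % effect against untreated controls (100% = plants dead).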

[2] = system: Alopecurus myosuroides (ALOMY); assay: Pre-emergence herbicidal action against ALOMY; conditions: 320 g/ha; scored visually after about 3 weeks; 100% = plants have died
How it was run: as §1

[3] = system: Amaranthus retroflexus (AMARE); assay: Pre-emergence herbicidal action against AMARE; conditions: visual scoring after about 3 weeks vs untreated controls
How it was run: as §1

Avena fatua (AVEFA) [4] = assay: Pre-emergence herbicidal action against AVEFA; conditions: visual scoring after about 3 weeks vs untreated controls
How it was run: as §1

[5] = system: Echinochloa crus-galli (ECHCG); assay: Pre-emergence herbicidal action against ECHCG; conditions: dosage 320 g/ha
How it was run: as §1

Lolium rigidum (LOLRI) [6] = assay: Pre-emergence herbicidal action against LOLRI
How it was run: as §1

[7] = system: Matricaria inodora (MATIN); assay: Pre-emergence herbicidal action against MATIN
How it was run: as §1

[8] = system: Pharbitis purpurea (PHBPU); assay: Pre-emergence herbicidal action against PHBPU
How it was run: as §1

[9] = system: Polygonum convolvulus (POLCO); assay: Pre-emergence herbicidal action against POLCO; conditions: dosage 320 g/ha
How it was run: as §1

Setaria viridis (SETVI) [10] = assay: Pre-emergence herbicidal action against SETVI
How it was run: as §1

[11] = system: Verconica persica (VERPE); assay: Pre-emergence herbicidal action against VERPE; conditions: dosage 320 g/ha
How it was run: as §1

Viola tricolor (VIOTR) [12] = assay: Pre-emergence herbicidal action against VIOTR
How it was run: as §1

Glycine max (GLXMA) = conditions: pre-emergence, crop plant compatibility, in comparison to untreated controls
How it was run: (§2)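 Crop injury rated visually in percent against untreated plants roughly 3 weeks after treatment (0% no effect, 100% plants dead). Compounds, as WP or EC with 0.5% additive in 600 l/ha water, were applied to the covering soil right after sowing; greenhouse growth. Suffixes a, b, c denote different dosages.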

[13] = system: Abutilon theophrasti (ABUTH); assay: Post-emergence herbicidal action against ABUTH; conditions: visual rating about 3 weeks after treatment vs untreated controls (100% = plants have died, 0% = like control plants)
How it was run: (§3)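 Rates were 320 g/ha or below, applied as aqueous WP/EC spray with 0.5% additive (600 l/ha) onto one-leaf-stage plants. About 3 weeks later in the greenhouse, damage was scored visually against untreated plants on a 0–100% scale, where 100% means plants died.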

[14] = system: Alopecurus myosuroides (ALOMY); assay: Post-emergence herbicidal action against ALOMY; conditions: visual rating about 3 weeks after treatment vs untreated controls (100% = plants have died, 0% = like control plants)
How it was run: as §3

[15] = system: Amaranthus retroflexus (AMARE); assay: Post-emergence herbicidal action against AMARE
How it was run: as §3

Avena fatua (AVEFA) [16] = assay: Post-emergence herbicidal action against AVEFA; conditions: visual rating about 3 weeks after treatment
How it was run: as §3

[17] = system: Echinochloa crus-galli (ECHCG); assay: Post-emergence herbicidal action against ECHCG
How it was run: as §3

[18] = system: Matricaria inodora (MATIN); assay: Post-emergence herbicidal action against MATIN
How it was run: as §3

[19] = system: Pharbitis purpurea (PHBPU); assay: Post-emergence herbicidal action against PHBPU
How it was run: as §3

[20] = system: Polygonum convolvulus (POLCO); assay: Post-emergence herbicidal action against POLCO
How it was run: as §3

Setaria viridis (SETVI) [21] = assay: Post-emergence herbicidal action against SETVI
How it was run: as §3

[22] = system: Verconica persica (VERPE); assay: Post-emergence herbicidal action against VERPE
How it was run: as §3

Oryza sativa (ORYSA) [23] = conditions: crop plant compatibility
How it was run: (§4)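 Effects were read visually as % versus untreated controls (0% = no effect, 100% = death) about 3 weeks post-treatment. Application was a post-emergence spray at the one-leaf stage of WP/EC formulations with 0.5% additive at 600 l/ha. Different dosages are denoted a, b and c.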

Zea mays (ZEAMX) [24] = conditions: for Post-emergence action against ZEAMX in %: crop plant compatibility, effect vs untreated controls
How it was run: as §4

[25] = system: Triticum aestivum (TRZAS); conditions: pre-emergence, 80 g/ha, crop plant compatibility, in comparison to untreated controls
How it was run: as §2

Lolium rigidum (LOLRI) [26] = assay: Post-emergence herbicidal action against LOLRI; conditions: dosage 320 g/ha
How it was run: as §3

Viola tricolor (VIOTR) [27] = assay: Post-emergence herbicidal action against VIOTR
How it was run: as §3

Oryza sativa (ORYSA) [28] = conditions: pre-emergence, crop plant compatibility, in comparison to untreated controls
How it was run: as §2

Zea mays (ZEAMX) [29] = conditions: pre-emergence, 80 g/ha, crop plant compatibility, in comparison to untreated controls
How it was run: as §2

[30] = system: Triticum aestivum (TRZAS); conditions: crop plant compatibility, 80 g/ha, effect vs untreated controls
How it was run: as §4

[31] = 80 g/ha, visual rating about 3 weeks after treatment vs untreated controls (100% = plants have died, 0% = like control plants)
[32] = 320 g/ha, visual rating about 3 weeks after treatment
[33] = 80 g/ha, effect in comparison to untreated controls

Row | Pre-emergence action against GLXMA in % (Glycine max (GLXMA); 80 g/ha) | SMILES | Pre-emergence action against ALOMY [2] | Pre-emergence action against AMARE in % ([3]; 80 g/ha) | Pre-emergence action against AMARE in % ([3]; 320 g/ha) | Pre-emergence action against ECHCG in % [5] | Pre-emergence action against LOLRI in % (Lolium rigidum (LOLRI) [6]; dosage 320 g/ha) | Pre-emergence action against MATIN in % ([7]; dosage 80 g/ha) | Pre-emergence action against MATIN in % ([7]; dosage 320 g/ha) | Pre-emergence action against PHBPU in % ([8]; dosage 80 g/ha) | Pre-emergence action against PHBPU in % ([8]; dosage 320 g/ha) | Pre-emergence action against POLCO in % [9] | Pre-emergence action against SETVI in % (Setaria viridis (SETVI) [10]; dosage 320 g/ha) | Pre-emergence action against VIOTR in % (Viola tricolor (VIOTR) [12]; 320 g/ha, Viola tricolor) | Post-emergence action against ABUTH in % ([13]; 80 g/ha) | Post-emergence action against ALOMY in % ([14]; 80 g/ha) | Post-emergence action against AMARE in % [15, 31] | Post-emergence action against AVEFA in % (Avena fatua (AVEFA) [16]; 80 g/ha) | Post-emergence action against ECHCG in % ([17]; dosage 80 g/ha) | Post-emergence action against MATIN in % ([18]; dosage 80 g/ha) | Post-emergence action against PHBPU in % ([19]; dosage 80 g/ha) | also measured
1 | 0% | COC(=O)CCOC(=O)COc1nn(-c2ccccn2)c(-c2cncc(F)c2)c1Br [Example I-77] | 90% | 90% | 100% | 100% | 100% | 80% | 90% | 80% | 90% | 90% | 100% | 100% | 80% | 90% | 80% | 90% | 90% | 90% | 90% | Pre-emergence action against ABUTH [1]: 80%; Pre-emergence action against AVEFA in % (Avena fatua (AVEFA) [4]; 80 g/ha): 80%; Pre-emergence action against AVEFA in % (Avena fatua (AVEFA) [4]; 320 g/ha): 90%; Pre-emergence action against LOLRI in % (Lolium rigidum (LOLRI) [6]; dosage 80 g/ha): 90%; Pre-emergence action against VERPE in % [11]: 90%; Pre-emergence action against VIOTR in % (Viola tricolor (VIOTR) [12]; dosage 80 g/ha): 90%; Post-emergence action against POLCO in % ([20]; dosage 80 g/ha): 80%; Post-emergence action against SETVI in % (Setaria viridis (SETVI) [21]; dosage 80 g/ha): 80%; Post-emergence action against VERPE in % ([22]; dosage 80 g/ha): 90%; Post-emergence action against ORYSA in % (Oryza sativa (ORYSA) [23]; 20 g/ha, effect vs untreated controls): 0%; Post-emergence action against ZEAMX in % (crop plant compatibility) (Zea mays (ZEAMX) [24]; 20 g/ha, ZEAMX, effect in comparison to untreated controls): 0%
2 | 10% | COC(=O)CSc1nn(-c2ccccn2)c(-c2cncc(F)c2)c1Br [Example I-151] | 100% | 90% | 100% | 90% | 90% | 90% | 90% | 80% | 80% | 90% | 100% | 100% | 80% | 80% | 90% | 90% | 90% | 80% | 90% | Pre-emergence action against SETVI in % (Setaria viridis (SETVI) [10]; dosage 80 g/ha): 90%; Pre-emergence action against GLXMA in % (Glycine max (GLXMA); 320 g/ha): 20%; Pre-emergence action against TRZAS in % [25]: 10%; Post-emergence action against ABUTH in % ([13]; 320 g/ha): 80%; Post-emergence action against ALOMY in % ([14]; 320 g/ha): 80%; Post-emergence action against AMARE in % [15, 32]: 100%; Post-emergence action against AVEFA in % (Avena fatua (AVEFA) [16]; 320 g/ha): 90%; Post-emergence action against ECHCG in % ([17]; dosage 320 g/ha): 90%; Post-emergence action against LOLRI in % (Lolium rigidum (LOLRI) [26]): 90%; Post-emergence action against MATIN in % ([18]; dosage 320 g/ha): 90%; Post-emergence action against PHBPU in % ([19]; dosage 320 g/ha): 90%; Post-emergence action against POLCO in % ([20]; dosage 320 g/ha): 80%; Post-emergence action against SETVI in % (Setaria viridis (SETVI) [21]; dosage 80 g/ha): 90%; Post-emergence action against SETVI in % (Setaria viridis (SETVI) [21]; dosage 320 g/ha): 90%; Post-emergence action against VERPE in % ([22]; 320 g/ha, VERPE): 90%; Post-emergence action against VIOTR in % (Viola tricolor (VIOTR) [27]; 80 g/ha): 80%; Post-emergence action against VIOTR in % (Viola tricolor (VIOTR) [27]; 320 g/ha): 90%; Post-emergence action against ORYSA in % (Oryza sativa (ORYSA) [23]; [33]): 0%
3 | 0% | C[C@H](NC(=O)COc1nn(-c2ccnc(F)c2)c(-c2ccc(F)nc2)c1Br)C(=O)O [III-25] |  |  | 80% |  |  |  |  |  |  |  |  |  |  |  |  |  |  |  |  | Pre-emergence action against ORYSA in % (Oryza sativa (ORYSA) [28]; 80 g/ha): 0%; Pre-emergence action against ORYSA in % (Oryza sativa (ORYSA) [28]; 320 g/ha): 0%; Pre-emergence action against ZEAMX in % (Zea mays (ZEAMX) [29]): 20%; Post-emergence action against AMARE in % [15, 32]: 80%; Post-emergence action against ORYSA in % (Oryza sativa (ORYSA) [23]; [33]): 0%; Post-emergence action against ORYSA in % (Oryza sativa (ORYSA) [23]; 320 g/ha, effect in comparison to untreated controls): 0%; Post-emergence action against TRZAS in % [30]: 0%; Post-emergence action against ZEAMX in % (Zea mays (ZEAMX) [24]; 80 g/ha): 0%; Post-emergence action against ZEAMX in % (Zea mays (ZEAMX) [24]; 320 g/ha): 0%
